Experimental data as given in PMC7699649 (Communications Biology, 2020).
No end group written: not given here.

Key:
[1] = test system: Acinetobacter baumannii ATCC 17978; settings: Supplementary Table 3; medium not stated; at least three biological replicates
Protocol: (§1) The antibacterial activity of the peptides was assessed through a modified twofold broth microdilution assay with modal MICs generated from at least three biological replicate experiments[20],[25]. The method broadly followed EUCAST methodology, with non-cation-adjusted Mueller Hinton or RPMI replacing cation-adjusted Mueller Hinton. Peptides and antibiotics were diluted in a twofold dilution in media down a 96 well plate. Bacteria were then added, back-diluted from an overnight culture, at a starting concentration of 5 × 10^5 CFU/ml. Plates were incubated, static at 37 C, for 20 h and the OD600 was determined using a Clariostar plate reader (BMG Labtech). […] Synergy was measured using standard microdilution checkerboard assays under the same conditions as the MICs[54]. Twofold dilution series of each peptide or antibiotic were prepared in separate 96 well plates and then combined into one before addition of bacteria. The growth/no growth interface was determined using the same definition as the MIC. The fractional inhibitory concentration was calculated from the most synergistic well on the plate for three independent repeats, and presented as the average +/− standard deviation. FIC is calculated as (MIC of compound A in combination with B/MIC of compound A alone) + (MIC of compound B in combination with A/MIC of compound B alone). MICs were determined on the same plates as the FICs to increase reproducibility.

[2] = test system: Acinetobacter baumannii AYE; settings: Supplementary Table 3; medium not stated; at least three biological replicates
Protocol: as §1

[3] = test system: EMR Staphylococcus aureus-15 NCTC 13616; settings: Supplementary Table 3; medium not stated; at least three biological replicates
Protocol: as §1

[4] = test system: EMR Staphylococcus aureus-16 NCTC 13277; settings: Supplementary Table 3; medium not stated; at least three biological replicates
Protocol: as §1

Klebsiella pneumoniae M6 = settings: Supplementary Table 3; medium not stated; at least three biological replicates
Protocol: as §1

[5] = test system: Klebsiella pneumoniae NCTC 13368; settings: Supplementary Table 3; medium not stated; at least three biological replicates
Protocol: as §1

[6] = test system: MS Staphylococcus aureus ATCC 9144; settings: Supplementary Table 3; medium not stated; at least three biological replicates
Protocol: as §1

[7] = test system: Pseudomonas aeruginosa NCTC 13437; settings: Supplementary Table 3; medium not stated; at least three biological replicates
Protocol: as §1

[8] = test system: Pseudomonas aeruginosa PAO1; settings: Supplementary Table 3; medium not stated; at least three biological replicates
Protocol: as §1

[9] = test system: VR Enterococcus faecium NCTC 12204; settings: Supplementary Table 3; medium not stated; at least three biological replicates
Protocol: as §1

[10] = test system: VS Enterococcus faecalis NCTC 775; settings: Supplementary Table 3; medium not stated; at least three biological replicates
Protocol: as §1

[11] = test system: Escherichia coli NCTC 12923; settings: Supplementary Table 3; medium not stated; at least three biological replicates
Protocol: as §1

human red blood cells = experiment: Haemolysis assay; assay type: cell-based; settings: human red blood cells in PBS, 1 h 37 °C, OD550, relative to 0.1% Triton-X-100; for concentration at which 10% haemolysis is achieved: three biological replicates
Protocol: Haemolysis was tested by incubating titrations of AMPs in PBS with freshly collected human red blood cells for 1 h at 37 °C. Control wells were treated with 0.1% Triton-X-100 to ensure complete lysis, or PBS-only to represent no lysis. Samples were spun down to remove non-lysed cells and the OD550 of the supernatant was measured using a Clariostar plate reader. The percentage of haemolysis was calculated as % haemolysis = (AP − AB)/(AC − AB) × 100, where AP is the absorbance value for a known peptide concentration, AC is the absorbance of the 0.1% Triton-X-100 control, AB is the absorbance of the PBS control. Data presented are averages and standard error from three biological replicate experiments.

Compound | Antibiogram, antibiotic concentration (MIC) [1] | Antibiogram, antibiotic concentration (MIC) [2] | Antibiogram, antibiotic concentration (MIC) [3] | Antibiogram, antibiotic concentration (MIC) [4] | Antibiogram, antibiotic concentration (MIC) (Klebsiella pneumoniae M6) | Antibiogram, antibiotic concentration (MIC) [5] | Antibiogram, antibiotic concentration (MIC) [6] | Antibiogram, antibiotic concentration (MIC) [7] | Antibiogram, antibiotic concentration (MIC) [8] | Antibiogram, antibiotic concentration (MIC) [9] | Antibiogram, antibiotic concentration (MIC) [10] | Antibiogram, antibiotic concentration (MIC) [11] | haemolysis at the highest concentration tested 400 µg/ml (human red blood cells) | concentration at which 10% haemolysis is achieved (human red blood cells)
CC(C)(O/N=C(\C(=O)N[C@@H]1C(=O)N2C(C(=O)[O-])=C(C[n+]3ccccc3)CS[C@H]12)c1csc(N)n1)C(=O)O [Ceftazidime] | < 0.5 µg/mL | > 128 µg/mL | 128 µg/mL | 8 µg/mL | < 0.5 µg/mL | 512 µg/mL | 16 µg/mL | > 128 µg/mL | 1 µg/mL | > 128 µg/mL | 32 µg/mL |  |  | 
O=C(O)c1cn(C2CC2)c2cc(N3CCNCC3)c(F)cc2c1=O [Ciprofloxacin] | 0.5 µg/mL | 128 µg/mL | 64 µg/mL | 128 µg/mL | < 0.5 µg/mL | 0.5 µg/mL | 1 µg/mL | 64 µg/mL | 0.5 µg/mL | 1 µg/mL | 2 µg/mL | ≤ 0.125 µg/mL |  | 
CNC(C)C1CCC(N)C(OC2C(N)CC(N)C(OC3OCC(C)(O)C(NC)C3O)C2O)O1 (centres unmarked) [Gentamicin] | 0.5 µg/mL | > 512 µg/mL | 0.25 µg/mL | 0.25 µg/mL | 0.25 µg/mL | 4 µg/mL | 0.25 µg/mL | 256 µg/mL | 4 µg/mL | 4 µg/mL | 4 µg/mL | 1 µg/mL |  | 
NC[C@H]1O[C@H](O[C@H]2[C@H](O)[C@@H](O[C@H]3O[C@H](CO)[C@@H](O)[C@H](N)[C@H]3O)[C@H](N)C[C@@H]2N)[C@H](N)C[C@@H]1O [Tobramycin] | 4 µg/mL | 64 µg/mL | 0.5 µg/mL | 0.25 µg/mL | 8 µg/mL | 64 µg/mL | 0.25 to 0.5 µg/mL | 64 µg/mL | 2 µg/mL | 64 µg/mL | 4 µg/mL | 16 µg/mL |  | 
Colistin | 1 µg/mL | 1 µg/mL | > 128 µg/mL |  | 2 µg/mL | 1 µg/mL |  | 4 µg/mL | 2 µg/mL |  |  | 0.0625 µg/mL |  | 
GWGSFFKKAAHAGKHAGKAALTHYL-NH2 [Pleurocidin-VA] |  |  |  |  |  |  |  |  |  |  |  |  | Neither pleurocidin-VA nor D-pleurocidin-VA induce detectable haemolysis | 
GWGSFFKKAAHVGKHVGKAALTHYL-NH2 [Pleurocidin, reference compound] |  |  |  |  |  |  |  |  |  |  |  |  | 50% | 120 µg/mL
GWGSFFRRAAHVGRHVGRAALTHYL-NH2 [Pleurocidin-KR] |  |  |  |  |  |  |  |  |  |  |  |  |  | 192 µg/mL
